Measured values as given in patent publication US20170305882A1, “BENZYL SUBSTITUTED INDAZOLES AS BUB1 KINASE INHIBITORS” (Bayer Pharma Aktiengesellschaft, priority 2014, published 2017).
Read-outs that look alike come from different tables or passages of the source.

Legend:
[1] = test system: HeLa human cervical tumor cells; experiment: Proliferation Assay (HeLa + Paclitaxel); assay type: cell-based; settings: 3 nM paclitaxel, test substance 92 hours; read-out: Biological Assay 3: Proliferation Assay (HeLa + Paclitaxel) IC50
Source text: Proliferation Assay (HeLa+Paclitaxel):

[2] = test system: histone 2A phosphorylation (kinase activity of Bub1); experiment: H2A Formation-Assay (cell-based mechanistic assay, co-treatment with Nocodazole); settings: 16 h, read-out: Biological Assay 4.1: H2A Formation IC50
Method: Cell-Based Mechanistic Assay: Changes of Phosphorylation Status of Histone 2A by Inhibition of Kinase Activity of Bub1
This assay determines the suppression of histone 2A phosphorylation by a Bub1 kinase inhibitor during co-treatment with Nocodazole. 25000 cells (cells were ordered from ATCC) were seeded in 96well plate for 5 h at 37° C. Cells were treated with Nocodazole (1 μg/ml) and varying concentrations (between 3 nM and 10 μM) of test compounds for 16 h. Cells were fixed (20 min, Fixing solution R&D), washed three times with PBS and blocked with Odyssey blocking buffer before incubating with the primary antibody against phosphorylated H2A (5 μg/ml ABIN482721) overnight at 2-8° C. After washing, secondary IRDye-labeled antibody mix with cell stains was added for 1 h and washed again with PBS. Plates were scanned with LICor Odyssey Infrared Imager CLx at 800 nm for P-H2A and at 700 nm for cell stains Draq5/Sapphire. The quotient of 800 nm and 700 nm for Nocodazole only treated cells was set as 100% and the quotient of 800 nm and 700 nm of untreated cells was set as 0%. […] The IC50 values were determined by means of a 4 parameter fit.

[3] = test system: HeLa human cervical tumor cells; experiment: Proliferation assay (HeLa cell line); assay type: cell-based; settings: 96 h, 4 days incubation, crystal violet, read-out: Biological Assay 2: Proliferation assay (HeLa cell line) median IC50
Source text: Human tumour cells were originally obtained from the American Type Culture Collection (ATCC), the Deutsche Sammlung von Mikroorganismen und Zellkulturen (DSMZ, German Collection of Microorganisms and Cell Cultures), or Epo GmbH Berlin.

[4] = test system: pre-induced phospho-histone 2A (kinase activity of Bub1); experiment: H2A Abrogation-Assay (cell-based mechanistic assay, pre-treatment with Nocodazole); settings: Nocodazole 16 h, then test compound 1 h; read-out: Biological Assay 4:2: H2A Abrogation IC50
Source text: Biological Assay 4.2: Abrogation-Assay
This assay measures the inhibition of histone 2A phosphorylation, which was induced by pre-treatment of the cells with Nocodazole, by a Bub1 kinase inhibitor.

[5] = target: T1, (recombinant) catalytic domain of human Bub1 (amino acids 704-1085) (Homo sapiens, UniProt O43683); experiment: Bub1 kinase assay (TR-FRET); assay type: biochemical
T1 construct: catalytic domain of human Bub1 (amino acids 704-1085); 6xHis (N); made in house; host or cells: Hi5 insect cells
T1 sequence (O43683 704-1085): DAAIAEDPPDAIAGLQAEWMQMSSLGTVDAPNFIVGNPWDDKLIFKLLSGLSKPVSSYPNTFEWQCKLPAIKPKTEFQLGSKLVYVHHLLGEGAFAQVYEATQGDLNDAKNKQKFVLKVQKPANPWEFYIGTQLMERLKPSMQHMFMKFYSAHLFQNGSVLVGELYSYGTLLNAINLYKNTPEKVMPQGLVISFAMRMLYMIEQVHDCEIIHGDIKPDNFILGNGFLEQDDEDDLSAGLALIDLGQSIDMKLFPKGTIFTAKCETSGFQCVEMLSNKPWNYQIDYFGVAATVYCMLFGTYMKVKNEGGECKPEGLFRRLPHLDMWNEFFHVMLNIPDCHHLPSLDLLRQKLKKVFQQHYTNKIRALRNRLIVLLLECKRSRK

[6] = ATP 10 μM, 60 min reaction, pH 7.5, read-out: Biological Assay 1: Bub1 kinase assay median IC50

| SMILES | IC50 [1] | IC50 [2] | IC50 [3] | IC50 [4] | IC50 [5, 6] | IC50 ([5]; probe of the competition assay, read-out: inhibits the kinase activity of Bub1, IC50) |
| --- | --- | --- | --- | --- | --- | --- |
| CCOc1cc(F)c(Cn2nc(-c3ncc(OCCCO)c(Nc4ccncc4C4CC4)n3)c3ccccc32)c(F)c1 [Example 2-1-3, 3-({4-[(3-cyclopropylpyridin-4-yl)amino]-2-[1-(4-ethoxy-2,6-difluorobenzyl)-1H-indazol-3-yl]pyrimidin-5-yl}oxy)propan-1-ol] | 54 nM | 0.97 nM | 3700 nM | 0.93 nM | 11 nM |  |
| CCOc1cc(F)c(Cn2nc(-c3ncc(OCCCO)c(Nc4cc(NC(C)=O)ncc4C)n3)c3ccccc32)c(F)c1 [Example 2-1-12, N-[4-({2-[1-(4-ethoxy-2,6-difluorobenzyl)-1H-indazol-3-yl]-5-(3-hydroxypropoxy)pyrimidin-4-yl}amino)-5-methylpyridin-2-yl]acetamide] |  |  |  |  | 35 nM |  |
| Cc1cc(Nc2nc(-c3nn(Cc4c(F)cc(OCC5CC5)cc4F)c4ccccc34)ncc2OCCCO)c(C)cn1 [Example 2-1-23, 3-[(2-{1-[4-(cyclopropylmethoxy)-2,6-difluorobenzyl]-1H-indazol-3-yl}-4-[(2,5-dimethylpyridin-4-yl)amino]pyrimidin-5-yl)oxy]propan-1-ol] | 300 nM |  | 2320 nM |  | 15 nM |  |
| Cc1nccc(Nc2nc(-c3nn(Cc4c(F)cc(OCC(F)F)cc4F)c4ccccc34)ncc2OCCCO)n1 [Example 2-1-21, 3-[(2-{1-[4-(2,2-difluoroethoxy)-2,6-difluorobenzyl]-1H-indazol-3-yl}-4-[(2-methylpyrimidin-4-yl)amino]pyrimidin-5-yl)oxy]propan-1-ol] | 170 nM | 26 nM | > 10000 nM | 56 nM | 11 nM |  |
| OCCCOc1cnc(-c2nn(Cc3c(F)cc(OCC(F)F)cc3F)c3ccccc23)nc1Nc1ccncc1Cl [Example 2-1-26, 3-[(4-[(3-chloropyridin-4-yl)amino]-2-{1-[4-(2,2-difluoroethoxy)-2,6-difluorobenzyl]-1H-indazol-3-yl}pyrimidin-5-yl)oxy]propan-1-ol] | 64 nM | 14 nM | 3790 nM | 38 nM | 14 nM |  |
| COCCOc1cc(F)c(Cn2nc(-c3ncc(OCCCO)c(Nc4ccncn4)n3)c3ccccc32)c(F)c1 [Example 2-1-27, 3{[2-{1-[2,6-difluoro-4-(2-methoxyethoxy)benzyl]-1H-indazol-3-yl}-4-(pyrimidin-4-ylamino)pyrimidin-5-yl]oxy}propan-1-ol] |  |  |  |  | 4 nM |  |
| OCCCOc1cnc(-c2nn(Cc3c(F)cc(OCC(F)(F)F)cc3F)c3ccccc23)nc1Nc1ccncc1Cl [Example 2-1-20, 3-[(4-[(3-chloropyridin-4-yl)amino]-2-{1-[2,6-difluoro-4-(2,2,2-trifluoroethoxy)benzyl]-1H-indazol-3-yl}pyrimidin-5-yl)oxy]propan-1-ol] | 98 nM | 110 nM | 6200 nM | > 1000 nM | 13 nM |  |
| CCOc1cc(F)c(Cn2nc(-c3ncc(OCCO)c(Nc4ccncc4)n3)c3ccccc32)c(F)c1 [Example 5-6-1, 2-({2-[1-(4-ethoxy-2,6-difluorobenzyl)-1H-indazol-3-yl]-4-(pyridin-4-ylamino)pyrimidin-5-yl}oxy)ethanol, reference compound] | 1400 nM | 1100 nM |  |  |  |  |
| CCOc1cc(F)c(Cn2nc(-c3ncc(OCCOCCNC(=S)Nc4ccc(-c5c6ccc(=O)cc-6oc6cc(O)ccc56)c(C(=O)O)c4)c(Nc4ccncc4)n3)c3ccccc32)c(F)c1 [Example 5-5-1, 5-[((2-[2-((2-[1-(4-ethoxy-2,6-difluorobenzyl)-1H-indazol-3-yl]-4-(pyridin-4-ylamino)pyrimidin-5-yl)oxy)ethoxy]ethyl)carbamothioyl)amino]-2-(6-hydroxy-3-oxo-3H-xanthen-9-yl)benzoic acid, reference compound] |  |  |  |  | 21 nM | 20.8 nM |
| CC(=O)Nc1cc(Nc2nc(-c3nn(Cc4c(F)cc(OCC(F)(F)F)cc4F)c4ccccc34)ncc2OCCCO)ccn1 [Example 2-1-25, N-(4-{[2-{1-[2,6-difluoro-4-(2,2,2-trifluoroethoxy)benzyl]-1H-indazol-3-yl}-5-(3-hydroxypropoxy)pyrimidin-4-yl]amino}pyridin-2-yl)acetamide] | 200 nM |  | 1360 nM |  | 19 nM |  |
| Cc1nccc(Nc2nc(-c3nn(Cc4c(F)cc(OCC(F)(F)F)cc4F)c4ccccc34)ncc2OCCCO)n1 [Example 2-1-19, 3-[(2-{1-[2,6-difluoro-4-(2,2,2-trifluoroethoxy)benzyl]-1H-indazol-3-yl}-4-[(2-methylpyrimidin-4-yl)amino]pyrimidin-5-yl)oxy]propan-1-ol] | 120 nM | 3.5 nM | > 10000 nM | 2.5 nM | 21 nM |  |
| CCOc1cc(F)c(Cn2nc(-c3ncc(OCCCO)c(Nc4cc(C)ncc4C)n3)c3ccccc32)c(F)c1 [Example 2-1-11, 3-{[4-[(2,5-dimethylpyridin-4-yl)amino]-2-[1-(4-ethoxy-2,6-difluorobenzyl)-1H-indazol-3-yl]pyrimidin-5-yl}oxy)propan-1-ol] | 260 nM | 26 nM | 3200 nM | 17 nM | 21 nM |  |
| CCOc1cc(F)c(Cn2nc(-c3ncc(OCCCO)c(Nc4ccnc(NC(C)=O)c4C)n3)c3ccccc32)c(F)c1 [Example 2-1-17, N-[4-({2-[1-(4-ethoxy-2,6-difluorobenzyl)-1H-indazol-3-yl]-5-(3-hydroxypropoxy)pyrimidin-4-yl}amino)-3-methylpyridin-2-yl]acetamide] | 200 nM | 1.7 nM | > 10000 nM | 3.9 nM | 9.2 nM |  |
| CCOc1cc(F)c(Cn2nc(-c3ncc(OCCCO)c(Nc4ccncc4OCC(F)(F)F)n3)c3ccccc32)c(F)c1 [Example 2-1-22, 3-[(2-[1-(4-ethoxy-2,6-difluorobenzyl)-1H-indazol-3-yl]-4-{[3-(2,2,2-trifluoroethoxy)pyridin-4-yl]amino}pyrimidin-5-yl)oxy]propan-1-ol] | 180 nM |  | 1390 nM |  | 5.7 nM |  |

Next, values leading:

| IC50 [1] | IC50 [2] | IC50 [3] | IC50 [4] | IC50 [5, 6] | IC50 ([5]; probe of the competition assay, read-out: inhibits the kinase activity of Bub1, IC50) | SMILES |
| --- | --- | --- | --- | --- | --- | --- |
| 1400 nM | 44 nM | 9000 nM | 23 nM | 15 nM |  | CCOc1cc(F)c(Cn2nc(-c3ncc(OCCCO)c(Nc4ccnc(F)c4)n3)c3ccccc32)c(F)c1 [Example 2-1-10, 3-({2-[1-(4-ethoxy-2,6-difluorobenzyl)-1H-indazol-3-yl]-4-[(2-fluoropyridin-4-yl)amino]pyrimidin-5-yl}oxy)propan-1-ol] |
| 330 nM | 171 nM | > 10000 nM | 33 nM | 3.8 nM |  | CCOc1cc(F)c(Cn2nc(-c3ncc(OCCCO)c(Nc4ccncn4)n3)c3ccccc32)c(F)c1 [Example 2-1-9, 3-({2-[1-(4-ethoxy-2,6-difluorobenzyl)-1H-indazol-3-yl]-4-(pyrimidin-4-ylamino)pyrimidin-5-yl}oxy)propan-1-ol] |
| 190 nM | 87 nM | > 10000 nM | 48 nM | 7 nM |  | CCOc1cc(F)c(Cn2nc(-c3ncc(OCCCO)c(Nc4ccnc(C)n4)n3)c3ccccc32)c(F)c1 [Example 2-1-7, 3-({2-[1-(4-ethoxy-2,6-difluorobenzyl)-1H-indazol-3-yl]-4-[(2-methylpyrimidin-4-yl)amino]pyrimidin-5-yl}oxy)propan-1-ol] |
| 100 nM | 8.4 nM | 3000 nM | 80 nM | 12 nM |  | CCOc1cc(F)c(Cn2nc(-c3ncc(OCCCO)c(Nc4ccnc(C)c4)n3)c3ccccc32)c(F)c1 [Example 2-1-4, 3-({2-[1-(4-ethoxy-2,6-difluorobenzyl)-1H-indazol-3-yl]-4-[(2-methylpyridin-4-yl)amino]pyrimidin-5-yl}oxy)propan-1-ol] |
| 140 nM | 37 nM | 3000 nM | 4.6 nM | 8 nM |  | CCOc1cc(F)c(Cn2nc(-c3ncc(OCCCO)c(Nc4ccnc(NC(=O)C5CC5)c4)n3)c3ccccc32)c(F)c1 [Example 2-1-15, N-[4-({2-[1-(4-Ethoxy-2,6-difluorobenzyl)-1H-indazol-3-yl]-5-(3-hydroxypropoxy)pyrimidin-4-yl}amino)pyridin-2-yl]cyclopropancarboxamide] |
|  |  |  |  | 16 nM |  | CCOc1cc(F)c(Cn2nc(-c3ncc(OCCCO)c(Nc4cc(C)ncc4F)n3)c3ccccc32)c(F)c1 [Example 2-1-16, 3-({2-[1-(4-Ethoxy-2,6-difluorobenzyl)-1H-indazol-3-yl]-4-[(5-fluor-2-methylpyridin-4-yl)amino]pyrimidin-5-yl}oxy)propan-1-ol] |
|  | 31 nM | 3700 nM | 17 nM | 10 nM |  | CCOc1cc(F)c(Cn2nc(-c3ncc(OCCCO)c(Nc4ccncc4C)n3)c3ccccc32)c(F)c1 [Example 2-1-2, 3-({2-[1-(4-ethoxy-2,6-difluorobenzyl)-1H-indazol-3-yl]-4-[(3-methylpyridin-4-yl)amino]pyrimidin-5-yl}oxy)propan-1-ol] |
